Read-outs that look alike come from different tables or passages of the source.
Legend:
CYP1A2 [1] = target: T1, CYP1A2 (Homo sapiens, UniProt P05177); experiment: biochemical
T1 construct: purchased Abcam ab211075
Method: CYP1A2 Inhibitor Assay Kit (Abcam; Cambridge, UK) was applied following the manufacturer’s description, where the inhibitory action of 0.000, 0.001, 0.010, 0.050, 0.10, 0.20, 0.50, 1.25, 3.0, 10, and 25 μM AOH concentrations were tested.
IC50 values were calculated by sigmoidal fitting (Hill1), using the Origin (version 2018, OriginLab Corporation, Northampton, MA, USA) software.

CYP1A2 [2] = target: T1, CYP1A2; type: in vitro ADME; conditions: 5 μM AOH
Method: (§1) To test the potential biotransformation of AOH by CYPs, the changes in the concentrations of AOH were examined in the presence of CYP1A2, 2C9, 2C19, 2D6, or 3A4 enzymes. Samples (final volume: 200 μL) containing AOH (5 μM), glucose-6-phosphate (500 μM), nicotinamide adenine dinucleotide phosphate (NADP^+, 200 μM), and the enzymes (CypExpress Cytochrome P450 reagents: 15 mg/mL each; including both CYP and glucose-6-phosphate dehydrogenase enzymes) were incubated for 0, 30, 60, 90, and 120 min (700 rpm, 30 °C) in potassium phosphate buffer (0.05 M, pH 7.5). The reaction was stopped by the addition of ice-cold methanol (100 μL), then the samples were centrifuged (10 min, 14,000 g, room temperature). AOH content of the supernatants was directly analyzed by HPLC-FLD (see details in Section 2.7). As a control, CypExpress Control reagent (CYPnull; 15 mg/mL) was also applied, which is a permeabilized and stabilized dried yeast powder (produced using an empty vector) and processed identically to CypExpress Cytochrome P450 products.
(§2) In CYP experiments, AOH was quantified with the above-described HPLC system, except that a fluorescence detector (FP-920; Jasco, Tokyo, Japan) was applied. Samples (20 μL) were driven through a Phenomenex Security Guard (C18, 4.0 × 3.0 mm) precolumn (Phenomenex, Torrance, CA, USA) linked to a Kinetex EVO-C18 (250 × 4.6 mm, 5 μm; Phenomenex) analytical column with 1.0 mL/min flow rate, at room temperature. For the isocratic elution, a mobile phase with 1 mM phosphoric acid (pH 3.0) and acetonitrile (65:35 v/v%) was applied. AOH was detected at 455 nm (λex = 345 nm). Limit of detection (LOD) and limit of quantification (LOQ) were established as the lowest concentrations when the signal-to-noise ratios were three and ten, respectively. The major validation parameters of this HPLC-FLD method were the following: linearity (R^2 = 0.997, in the 100–1000 nM concentration range); LOD = 100 nM; LOQ = 200 nM; intraday precision = 2.9% (n = 7); accuracy = 3.4% (n = 7).

CYP3A4 = target: T2, CYP3A4 (Homo sapiens, UniProt P08684); type: in vitro ADME; conditions: 5 μM AOH; 120 min incubation; vs CYPnull
T2 construct: purchased Merck; host or cells: yeast (inferred from the description of the CYPnull control, 'processed identically')
T2 sequence (P08684 whole entry): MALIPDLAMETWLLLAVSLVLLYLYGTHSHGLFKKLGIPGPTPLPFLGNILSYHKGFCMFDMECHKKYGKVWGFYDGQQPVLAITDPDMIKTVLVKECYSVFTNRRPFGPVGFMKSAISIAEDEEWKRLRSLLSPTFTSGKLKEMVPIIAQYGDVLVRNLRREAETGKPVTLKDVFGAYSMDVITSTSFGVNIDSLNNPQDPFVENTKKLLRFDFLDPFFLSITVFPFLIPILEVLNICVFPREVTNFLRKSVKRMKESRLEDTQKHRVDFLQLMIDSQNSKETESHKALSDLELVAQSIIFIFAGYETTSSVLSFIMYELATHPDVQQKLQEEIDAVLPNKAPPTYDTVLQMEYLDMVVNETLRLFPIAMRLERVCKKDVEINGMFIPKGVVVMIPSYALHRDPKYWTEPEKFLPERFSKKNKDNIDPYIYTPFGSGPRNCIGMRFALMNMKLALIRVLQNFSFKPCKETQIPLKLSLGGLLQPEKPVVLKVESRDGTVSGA
Method: as §1, §2

CYP2D6 = target: T3, CYP2D6 (Homo sapiens, UniProt P10635); type: in vitro ADME; conditions: 5 μM AOH; 120 min incubation; vs CYPnull
T3 construct: purchased Merck; host or cells: yeast (inferred from the description of the CYPnull control, 'processed identically')
T3 sequence (P10635 whole entry): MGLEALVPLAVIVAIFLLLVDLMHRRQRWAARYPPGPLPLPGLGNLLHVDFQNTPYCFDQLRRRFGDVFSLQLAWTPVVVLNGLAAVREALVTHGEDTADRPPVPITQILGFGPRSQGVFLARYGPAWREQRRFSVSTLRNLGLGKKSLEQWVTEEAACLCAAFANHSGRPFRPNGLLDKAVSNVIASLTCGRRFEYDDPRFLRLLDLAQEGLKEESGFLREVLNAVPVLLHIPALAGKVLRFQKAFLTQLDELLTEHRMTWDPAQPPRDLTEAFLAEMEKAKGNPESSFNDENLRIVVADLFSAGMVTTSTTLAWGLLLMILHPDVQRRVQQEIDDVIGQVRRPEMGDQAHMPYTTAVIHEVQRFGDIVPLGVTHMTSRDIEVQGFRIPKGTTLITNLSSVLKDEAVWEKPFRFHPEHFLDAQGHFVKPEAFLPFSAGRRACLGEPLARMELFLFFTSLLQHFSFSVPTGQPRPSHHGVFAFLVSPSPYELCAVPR
Method: as §1, §2

CYP2C9 = target: T4, CYP2C9 (Homo sapiens, UniProt P11712); type: in vitro ADME; conditions: 5 μM AOH; 120 min incubation; vs CYPnull
T4 construct: purchased Merck; host or cells: yeast (inferred from the description of the CYPnull control, 'processed identically')
T4 sequence (P11712 whole entry): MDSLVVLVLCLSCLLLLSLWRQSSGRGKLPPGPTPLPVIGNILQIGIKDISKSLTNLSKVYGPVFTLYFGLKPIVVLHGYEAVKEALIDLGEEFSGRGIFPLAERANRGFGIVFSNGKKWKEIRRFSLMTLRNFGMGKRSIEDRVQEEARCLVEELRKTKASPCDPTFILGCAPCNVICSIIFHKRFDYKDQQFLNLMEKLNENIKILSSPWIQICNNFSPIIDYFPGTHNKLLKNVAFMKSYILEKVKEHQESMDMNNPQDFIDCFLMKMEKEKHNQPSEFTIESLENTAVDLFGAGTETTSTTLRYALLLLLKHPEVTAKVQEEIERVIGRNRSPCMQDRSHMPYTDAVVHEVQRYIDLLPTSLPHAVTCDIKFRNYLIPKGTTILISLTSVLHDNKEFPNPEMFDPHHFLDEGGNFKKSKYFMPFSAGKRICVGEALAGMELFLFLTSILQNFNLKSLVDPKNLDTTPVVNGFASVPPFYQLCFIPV
Method: as §1, §2

OATP1B3 = target: T5, OATP1B3 (Homo sapiens, UniProt Q9NPD5); experiment: cell-based; conditions: A431-OATP1B3; pyranine 20 µM; pH 5.5; 30 min; read-out: IC50, OATP1B3 inhibition
T5 construct: expressed in transfected cells; host or cells: A431
T5 sequence (Q9NPD5 whole entry): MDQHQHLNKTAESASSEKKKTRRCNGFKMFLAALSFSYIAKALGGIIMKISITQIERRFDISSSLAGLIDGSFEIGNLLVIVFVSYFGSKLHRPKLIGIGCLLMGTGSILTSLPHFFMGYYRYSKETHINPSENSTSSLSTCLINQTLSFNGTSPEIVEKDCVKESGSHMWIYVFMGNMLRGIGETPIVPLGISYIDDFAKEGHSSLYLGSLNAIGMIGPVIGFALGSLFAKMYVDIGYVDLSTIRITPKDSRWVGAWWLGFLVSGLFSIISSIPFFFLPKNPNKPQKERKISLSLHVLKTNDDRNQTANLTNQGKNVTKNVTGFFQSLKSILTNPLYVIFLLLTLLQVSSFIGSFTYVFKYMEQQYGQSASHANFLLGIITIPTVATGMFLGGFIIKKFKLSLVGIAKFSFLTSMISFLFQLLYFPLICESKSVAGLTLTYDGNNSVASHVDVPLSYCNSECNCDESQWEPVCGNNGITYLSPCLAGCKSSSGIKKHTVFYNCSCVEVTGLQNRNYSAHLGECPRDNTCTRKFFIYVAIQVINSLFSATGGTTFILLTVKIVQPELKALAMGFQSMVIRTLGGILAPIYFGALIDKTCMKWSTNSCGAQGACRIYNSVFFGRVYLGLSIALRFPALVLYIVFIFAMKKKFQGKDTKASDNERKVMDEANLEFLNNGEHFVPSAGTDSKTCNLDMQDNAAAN
Method: (§3) A431 cell lines overexpressing human OATPs (1A2, 1B1, 1B3, or 2B1) and their mock transfected controls were generated earlier. A431 cells expressed no or negligible OATPs compared to the overexpressing cell lines. Cells were cultured in Dulbecco’s modified Eagle medium (DMEM, Thermo Fisher Scientific, Waltham, MA, USA) with 10% fetal bovine serum, 2 mM L-glutamine, 100 U/mL penicillin, and 100 µg/mL streptomycin at 37 °C, with 5% CO2. OATP expression was regularly monitored (based on the transport activity of transfected cells), and the cells were used up to 20 passages.
(§4) Interaction between OATPs (1A2, 1B1, 1B3, and 2B1) and AOH was measured in an indirect transport assay with pyranine or sulforhodamine 101 as fluorescent probes. A431 cell overexpressing OATPs or their mock transfected controls were seeded on 96-well plates one day prior to the measurements in 200 µL DMEM in 8 × 10^4 cells/well density. Before the measurement, the medium was removed, and cells were washed three times with 200 µL PBS (phosphate-buffered saline, pH 7.2) at room temperature. Then the cells were preincubated with 50 µL uptake buffer (125 mM NaCl, 4.8 mM KCl, 1.2 mM CaCl2, 1.2 mM KH2PO4, […], 25 mM MES, and 5.6 mM glucose, with the pH adjusted using 1 M HEPES and 10 N NaOH, pH 5.5 for OATP1B1/1B3/2B1 and pH 7.4 for OATP1A2) with or without increasing concentrations (0.00, 0.16, 0.31, 0.63, 1.25, 2.5, 5.0, 10, and 20 μM) of AOH for 5 min. The reaction was started when the probe was added in 10 µM (pyranine; OATP1B1), 20 µM (pyranine; OATP2B1 and OATP1B3), or 0.5 µM (sulforhodamine 101; OATP1A2) final concentrations. […] Fluorescence was measured in an Enspire plate reader (Perkin Elmer, Waltham, MA, USA) in Ex/Em wavelengths 460/510 nm for pyranine and 586/605 nm for sulforhodamine 101. Bottom reading was applied with two horizontal (X) and two vertical (Y) points, measurement height was 3 mm with 200 flashes. IC50 values were calculated by sigmoidal fitting (Hill1), using the Origin (version 2018, OriginLab Corporation, Northampton, MA, USA) software.

OATP2B1 = target: T6, OATP2B1 (Homo sapiens, UniProt O94956); experiment: cell-based; conditions: A431-OATP2B1; pyranine 20 µM; pH 5.5; 15 min; read-out: IC50, OATP2B1 inhibition
T6 construct: expressed in transfected cells; host or cells: A431
T6 sequence (O94956 whole entry): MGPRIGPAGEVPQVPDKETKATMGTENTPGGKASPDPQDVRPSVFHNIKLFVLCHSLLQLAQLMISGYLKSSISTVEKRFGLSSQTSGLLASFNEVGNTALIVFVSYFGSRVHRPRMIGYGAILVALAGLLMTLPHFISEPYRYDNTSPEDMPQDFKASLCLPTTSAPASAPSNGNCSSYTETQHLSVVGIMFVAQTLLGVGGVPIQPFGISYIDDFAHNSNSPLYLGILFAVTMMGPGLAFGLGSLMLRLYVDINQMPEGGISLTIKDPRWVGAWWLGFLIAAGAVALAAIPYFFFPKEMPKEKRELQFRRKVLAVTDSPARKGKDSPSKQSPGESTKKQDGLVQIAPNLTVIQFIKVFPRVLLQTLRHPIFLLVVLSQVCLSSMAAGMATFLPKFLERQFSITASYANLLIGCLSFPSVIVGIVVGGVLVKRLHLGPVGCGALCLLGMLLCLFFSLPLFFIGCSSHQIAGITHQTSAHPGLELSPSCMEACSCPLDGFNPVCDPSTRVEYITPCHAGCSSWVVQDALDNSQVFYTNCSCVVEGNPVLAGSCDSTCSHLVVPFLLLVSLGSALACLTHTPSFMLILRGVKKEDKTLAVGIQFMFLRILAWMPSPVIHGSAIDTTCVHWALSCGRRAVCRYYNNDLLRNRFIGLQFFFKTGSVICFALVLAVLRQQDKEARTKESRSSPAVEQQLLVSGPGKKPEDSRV
Method: as §3, §4

OATP1A2 = target: T7, OATP1A2 (Homo sapiens, UniProt P46721); experiment: cell-based; conditions: A431-OATP1A2; sulforhodamine 101 0.5 µM; pH 7.4; 10 min; read-out: IC50, OATP1A2 inhibition
T7 construct: expressed in transfected cells; host or cells: A431
T7 sequence (P46721 whole entry): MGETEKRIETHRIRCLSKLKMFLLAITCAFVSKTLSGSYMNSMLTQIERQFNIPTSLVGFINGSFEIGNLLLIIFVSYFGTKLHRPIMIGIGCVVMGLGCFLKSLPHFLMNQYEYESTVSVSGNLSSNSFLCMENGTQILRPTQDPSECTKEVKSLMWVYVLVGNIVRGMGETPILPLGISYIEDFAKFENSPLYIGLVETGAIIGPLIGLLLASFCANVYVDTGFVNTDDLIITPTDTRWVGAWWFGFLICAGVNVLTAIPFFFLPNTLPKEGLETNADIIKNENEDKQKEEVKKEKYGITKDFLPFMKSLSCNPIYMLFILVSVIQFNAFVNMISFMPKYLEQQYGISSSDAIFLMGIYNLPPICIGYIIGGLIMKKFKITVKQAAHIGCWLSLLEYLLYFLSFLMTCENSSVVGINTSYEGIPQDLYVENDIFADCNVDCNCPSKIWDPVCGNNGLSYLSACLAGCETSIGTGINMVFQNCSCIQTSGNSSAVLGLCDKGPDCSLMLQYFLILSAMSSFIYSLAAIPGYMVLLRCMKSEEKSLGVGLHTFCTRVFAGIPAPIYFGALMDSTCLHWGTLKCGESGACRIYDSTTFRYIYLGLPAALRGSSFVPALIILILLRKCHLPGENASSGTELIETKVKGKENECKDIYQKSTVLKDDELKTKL
Method: as §3, §4

T1 sequence (P05177 whole entry): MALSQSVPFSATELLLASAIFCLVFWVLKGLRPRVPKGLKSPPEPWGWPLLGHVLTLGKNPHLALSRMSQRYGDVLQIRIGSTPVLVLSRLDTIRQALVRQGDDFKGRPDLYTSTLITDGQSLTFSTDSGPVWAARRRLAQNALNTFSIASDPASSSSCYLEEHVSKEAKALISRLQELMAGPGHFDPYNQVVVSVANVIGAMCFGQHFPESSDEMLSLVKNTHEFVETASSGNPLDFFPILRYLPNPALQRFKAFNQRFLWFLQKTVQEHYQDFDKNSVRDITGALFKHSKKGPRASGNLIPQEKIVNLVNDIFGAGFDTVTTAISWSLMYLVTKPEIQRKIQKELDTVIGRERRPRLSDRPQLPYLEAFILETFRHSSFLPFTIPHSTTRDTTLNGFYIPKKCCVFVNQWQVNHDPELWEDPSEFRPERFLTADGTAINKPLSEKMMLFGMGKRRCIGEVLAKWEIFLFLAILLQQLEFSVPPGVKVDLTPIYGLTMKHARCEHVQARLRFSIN

Compound: Cc1cc(O)cc2oc(=O)c3c(O)cc(O)cc3c12 [AOH, Alternariol]
- CYP1A2 inhibition at 0.05 μM (CYP1A2 [1]; 0.05 μM AOH, p < 0.01): statistically significant
- CYP1A2 inhibition at 10 μM (CYP1A2 [1]; 10 μM AOH): close to complete
- IC50 (CYP1A2 [1]; fluorometric kit, AOH 0-25 μM, read-out: IC50, CYP1A2 inhibition): 150 nM
- depletion of AOH by CYP1A2 (CYP1A2 [2]; 60 min incubation): 16%
- depletion of AOH by CYP1A2 (CYP1A2 [2]; 120 min incubation): 25%
- changes in AOH levels in the presence of CYP3A4 (CYP3A4): no relevant changes
- changes in AOH levels in the presence of CYP2D6 (CYP2D6): no relevant changes
- changes in AOH levels in the presence of CYP2C9 (CYP2C9): no relevant changes
- IC50 (OATP1B3): 4100 nM
- IC50 (OATP2B1): 1900 nM
- IC50 (OATP1A2): 5400 nM
